How the values were obtained:
GLP-1R [1] = molecular target: T1, GLP-1R (Homo sapiens, UniProt P43220); assay: ebBRET pathway activation (15 pathways) at the endoplasmic reticulum (tdrGFP-PTP1B); assay type: cell-based; settings: for Emax: Endoplasmic reticulum; for Efficacy (normalized) / Potency (logEC50): endoplasmic reticulum
Protocol: Subcellular resolution was achieved by using organelle-specific energy acceptors for early endosomes, the Golgi apparatus and the endoplasmic reticulum.
Data are represented as the mean ± SEM (n = 3 biologically independent experiments). EE early endosomes, GA Golgi apparatus, ER endoplasmic reticulum.
HEK293 cells were cultured in DMEM supplemented with 10% FBS, 1% penicillin/streptomycin, propagated in plastic flasks and grown at 37 °C in 5% CO2 and 90% humidity. […] After a 48-hour incubation, cells were washed once with HBSS and maintained in the same buffer.
Best fit values were excluded if EC50 was outside of the concentration range tested or if the span was negative. […] All further data processing was performed in R (version 4.2.1).
Pharmacological characterization of GLP-1R agonist signaling
profiles at the endoplasmic reticulum. a, Illustration depicting the ebBRET approach to
monitoring signaling at the endoplasmic reticulum. b, Concentration-response curves of GLP-1R
agonists across 15 pathways at the endoplasmic reticulum using tdrGFP-P TP1B. Data are
represented by the non-linear fit and sc aled according to the highest responding drug (n=3
biologically independent samples). Drug-s pecific polar area diagrams for efficacy (normalized
endoplasmic reticulum. Drugs were deemed to activate a given pathway after comparing
the top and bottom parameters from non-linear regression by one-sided extra sum-o f-
similarity index for efficacy (e) and potency (f) quantifies similarities and differences across drug
Drug- induced transducer engagement by GLP-1R at the
endoplasmic reticulum. Agonist concentration response curves for 15 transducers at the
endoplasmic reticulum. Drugs were deemed to activate a given pathway after comparing the top
and bottom parameters from non-linear regres sion by one-sided extra s um-o f-s quares F-t est
Data are represented as the
mean ± SEM (n=3 biologically independent samples). Sigmoidal dose-r esponse curves are
Polar area diagrams depict pathway activation at the endoplasmic
reticulum. Pathway-specific polar area diagrams for efficacy (normalized to the highest
were deemed to activate a given pathway after comparing the top and bottom parameters from
non-linear regression by one-sided extra sum-o f-s quares F-t est followed by Bonferroni

GLP-1R [2] = molecular target: T1, GLP-1R; assay: ebBRET pathway activation (15 pathways) at the Golgi apparatus (tdrGFP-Giantin); assay type: cell-based; settings: for Efficacy (normalized) / Potency (logEC50) / Emax: Golgi apparatus
[3] = molecular target: kinase substrates (Kinase Library); assay: Kinase substrate enrichment analysis of regulated phosphopeptides; parameters: species or system human; settings: 1 μM
Protocol: All further data processing was performed in R (version 4.2.1). Only phosphopeptides with a localization score of at least 0.75 were considered for further analysis. Peptides quantified with different charge states were aggregated and only phosphopeptides with at least 2 quantifications for each time point, treatment and replicate were kept. Intensities were normalized by median centering and log2-scaling. Missing values were imputed by k-NN imputation. All statistical comparisons were performed based on homoscedastic two-tailed Student’s t-tests. For the kinase substrate enrichment analysis, the Kinase Library online analytical tool[73] was used with predetermined foreground and background sets based on previously determined significance thresholds (P < 0.05; log2 fold change >1). All remaining settings were left as default.

T1 sequence (P43220 24-463): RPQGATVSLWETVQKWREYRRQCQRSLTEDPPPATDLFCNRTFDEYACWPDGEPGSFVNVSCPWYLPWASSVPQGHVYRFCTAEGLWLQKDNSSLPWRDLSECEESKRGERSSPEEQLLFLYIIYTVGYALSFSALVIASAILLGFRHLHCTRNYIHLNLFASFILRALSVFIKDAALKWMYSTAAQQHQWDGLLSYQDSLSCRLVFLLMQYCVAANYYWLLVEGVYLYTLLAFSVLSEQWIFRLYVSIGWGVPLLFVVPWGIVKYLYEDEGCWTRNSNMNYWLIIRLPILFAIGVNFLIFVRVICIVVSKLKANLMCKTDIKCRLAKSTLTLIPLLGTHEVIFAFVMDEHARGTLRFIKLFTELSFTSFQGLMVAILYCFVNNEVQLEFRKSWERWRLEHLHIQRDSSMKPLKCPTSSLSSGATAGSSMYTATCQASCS

N#Cc1ccc(COc2cccc(C3CCN(Cc4nc5ccc(C(=O)O)cc5n4C[C@@H]4CCO4)CC3)n2)c(F)c1 [Danuglipron]
Emax (GLP-1R [1]; GRK/Gβγ): 0.1421
Emax (GLP-1R [1]; Gα11): 0
Emax (GLP-1R [1]; Gα12): 0
Emax (GLP-1R [1]; Gα13): 0
Emax (GLP-1R [1]; Gα14): 0
Emax (GLP-1R [1]; Gα15): 0
Emax (GLP-1R [1]; Gαi1): 0
Emax (GLP-1R [1]; Gαi2): 0
Emax (GLP-1R [1]; Gαi3): 0
Emax (GLP-1R [1]; GαoA): 0
Emax (GLP-1R [1]; GαoB): 0
Emax (GLP-1R [1]; Gαq): 0
Emax (GLP-1R [1]; Gαs): 0.2391
Emax (GLP-1R [1]; Gαz): 0
Emax (GLP-1R [1]; βARR): 0.08276
mGs recruitment at the endoplasmic reticulum, in words (GLP-1R [1]; Rluc8-mGs, tdrGFP-PTP1B, 60 min, n = 3): the only drug capable of recruiting mGs to the endoplasmic reticulum
Efficacy (normalized) (GLP-1R [1]; GRK2/Gβγ, Supplementary Fig. 15c): 0.6257
Efficacy (normalized) (GLP-1R [1]; Gα11, Supplementary Fig. 15c): 0
Potency (logEC50) (GLP-1R [1]; Gα11, Supplementary Fig. 15d): 0
Efficacy (normalized) (GLP-1R [1]; Gα12, Supplementary Fig. 15c): 0
Potency (logEC50) (GLP-1R [1]; Gα12, Supplementary Fig. 15d): 0
Efficacy (normalized) (GLP-1R [1]; Gα13, Supplementary Fig. 15c): 0
Potency (logEC50) (GLP-1R [1]; Gα13, Supplementary Fig. 15d): 0
Efficacy (normalized) (GLP-1R [1]; Gα14, Supplementary Fig. 15c): 0
Potency (logEC50) (GLP-1R [1]; Gα14, Supplementary Fig. 15d): 0
Efficacy (normalized) (GLP-1R [1]; Gα15, Supplementary Fig. 15c): 0
Potency (logEC50) (GLP-1R [1]; Gα15, Supplementary Fig. 15d): 0
Efficacy (normalized) (GLP-1R [1]; Gαi1, Supplementary Fig. 15c): 0
Potency (logEC50) (GLP-1R [1]; Gαi1, Supplementary Fig. 15d): 0
Efficacy (normalized) (GLP-1R [1]; Gαi2, Supplementary Fig. 15c): 0
Potency (logEC50) (GLP-1R [1]; Gαi2, Supplementary Fig. 15d): 0
Efficacy (normalized) (GLP-1R [1]; Gαi3, Supplementary Fig. 15c): 0
Potency (logEC50) (GLP-1R [1]; Gαi3, Supplementary Fig. 15d): 0
Efficacy (normalized) (GLP-1R [1]; GαoA, Supplementary Fig. 15c): 0
Potency (logEC50) (GLP-1R [1]; GαoA, Supplementary Fig. 15d): 0
Efficacy (normalized) (GLP-1R [1]; GαoB, Supplementary Fig. 15c): 0
Potency (logEC50) (GLP-1R [1]; GαoB, Supplementary Fig. 15d): 0
Efficacy (normalized) (GLP-1R [1]; Gαq, Supplementary Fig. 15c): 0
Potency (logEC50) (GLP-1R [1]; Gαq, Supplementary Fig. 15d): 0
Efficacy (normalized) (GLP-1R [1]; Gαs, Supplementary Fig. 15c): 1
Potency (logEC50) (GLP-1R [1]; Gαs, Supplementary Fig. 15d): 0.2956
Efficacy (normalized) (GLP-1R [1]; Gαz, Supplementary Fig. 15c): 0
Potency (logEC50) (GLP-1R [1]; Gαz, Supplementary Fig. 15d): 0
Efficacy (normalized) (GLP-1R [1]; βARR2, Supplementary Fig. 15c): 0.2909
Potency (logEC50) (GLP-1R [1]; βARR2, Supplementary Fig. 15d): 0.3992
Efficacy (normalized) (GLP-1R [2]; GRK2/Gβγ): 0
Potency (logEC50) (GLP-1R [2]; GRK2/Gβγ): 0
Emax (GLP-1R [2]; GRK/Gβγ): 0
Efficacy (normalized) (GLP-1R [2]; Gα11): 0
Emax (GLP-1R [2]; Gα11): 0
Potency (logEC50) (GLP-1R [2]; Gα11): 0
Efficacy (normalized) (GLP-1R [2]; Gα12): 0
Emax (GLP-1R [2]; Gα12): 0
Potency (logEC50) (GLP-1R [2]; Gα12): 0
Efficacy (normalized) (GLP-1R [2]; Gα13): 0
Emax (GLP-1R [2]; Gα13): 0
Potency (logEC50) (GLP-1R [2]; Gα13): 0
Efficacy (normalized) (GLP-1R [2]; Gα14): 0
Emax (GLP-1R [2]; Gα14): 0
Potency (logEC50) (GLP-1R [2]; Gα14): 0
Efficacy (normalized) (GLP-1R [2]; Gα15): 0
Emax (GLP-1R [2]; Gα15): 0
Potency (logEC50) (GLP-1R [2]; Gα15): 0
Efficacy (normalized) (GLP-1R [2]; Gαi1): 0
Emax (GLP-1R [2]; Gαi1): 0
Potency (logEC50) (GLP-1R [2]; Gαi1): 0
Efficacy (normalized) (GLP-1R [2]; Gαi2): 0
Emax (GLP-1R [2]; Gαi2): 0
Potency (logEC50) (GLP-1R [2]; Gαi2): 0
Efficacy (normalized) (GLP-1R [2]; Gαi3): 0
Emax (GLP-1R [2]; Gαi3): 0
Potency (logEC50) (GLP-1R [2]; Gαi3): 0
Efficacy (normalized) (GLP-1R [2]; GαoA): 0
Emax (GLP-1R [2]; GαoA): 0
Potency (logEC50) (GLP-1R [2]; GαoA): 0
Efficacy (normalized) (GLP-1R [2]; GαoB): 0
Emax (GLP-1R [2]; GαoB): 0
Potency (logEC50) (GLP-1R [2]; GαoB): 0
Efficacy (normalized) (GLP-1R [2]; Gαq): 0
Emax (GLP-1R [2]; Gαq): 0
Potency (logEC50) (GLP-1R [2]; Gαq): 0
Efficacy (normalized) (GLP-1R [2]; Gαs): 0.8077
Emax (GLP-1R [2]; Gαs): 0.9498
Potency (logEC50) (GLP-1R [2]; Gαs): 0.7638
Efficacy (normalized) (GLP-1R [2]; Gαz): 1
Emax (GLP-1R [2]; Gαz): 0.06827
Potency (logEC50) (GLP-1R [2]; Gαz): 0.517
Emax (GLP-1R [2]; βARR): 0.7121
Efficacy (normalized) (GLP-1R [2]; βARR2): 0.4942
Potency (logEC50) (GLP-1R [2]; βARR2): 0.4339
mGs recruitment at the Golgi apparatus, in words (GLP-1R [2]; Rluc8-mGs, tdrGFP-Giantin, 60 min, n = 3): induced a strong response at the Golgi apparatus
kinase kinetics, in words [3]: distinctly different kinetics
dominant_enrichment_value_log2, NUAK2 ([3]; 15min, log10 abs adjusted p 0.784095): 1.911
dominant_enrichment_value_log2, PKACA ([3]; 15min, log10 abs adjusted p 0.96096): 2.68
dominant_enrichment_value_log2, PRKD3 ([3]; 15min, log10 abs adjusted p 1.61335): 3.823
dominant_enrichment_value_log2, PRKD2 ([3]; 15min, log10 abs adjusted p 1.89437): 2.877
dominant_enrichment_value_log2, SIK ([3]; 15min, log10 abs adjusted p 3.68823): 3.799

— PMC10562414, “GLP-1R signaling neighborhoods associate with the susceptibility to adverse drug reactions of incretin mimetics” (Nature Communications, 2023)
